The target in test [1] is T1, human α1A-AR F187A variant (Homo sapiens, UniProt P35348, F187A).
T1 construct: expressed in transfected cells; host or cells: COS-7, transient (calcium phosphate)
T1 sequence (P35348 1-466 F187A): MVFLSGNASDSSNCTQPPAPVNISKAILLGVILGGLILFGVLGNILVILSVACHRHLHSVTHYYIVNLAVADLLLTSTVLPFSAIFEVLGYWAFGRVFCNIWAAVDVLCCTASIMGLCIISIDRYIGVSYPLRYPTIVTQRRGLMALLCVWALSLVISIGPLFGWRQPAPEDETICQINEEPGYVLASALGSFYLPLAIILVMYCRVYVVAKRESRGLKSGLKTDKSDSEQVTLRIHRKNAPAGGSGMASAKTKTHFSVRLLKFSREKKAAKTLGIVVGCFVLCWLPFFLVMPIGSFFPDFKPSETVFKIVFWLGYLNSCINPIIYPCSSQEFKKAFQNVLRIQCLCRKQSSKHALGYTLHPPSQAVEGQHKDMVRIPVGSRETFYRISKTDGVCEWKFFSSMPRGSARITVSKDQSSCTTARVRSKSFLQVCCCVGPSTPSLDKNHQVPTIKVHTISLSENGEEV
Nature of the test: Saturation binding of ^125I-HEAT. As to conditions: F187A variant relative to wild type. The text has this: (§1) α1A-AR cDNA inserted in the prK5 vector was kindly provided by Michael Brownstein (Craig Venter Institute, Rockville, MD). Point mutations were introduced into the α1A-AR gene by sense and antisense primers (Sigma-Aldrich, St Quentin-Fallavier, France) containing the desired changes, using the QuikChange Site-Directed Mutagenesis kit. The incorporation of each mutation was verified by DNA sequencing.
(§2) CHO cells stably expressing α1-ARs were kindly provided by Dr. Hervé Paris (INSERM U858, Toulouse, France) and were grown in a 50∶50 Dulbecco's Modified Eagle's Medium (DMEM)/Ham's F12 medium supplemented with 10% (v/v) foetal bovine serum (FBS), glutamine (2 mM), penicillin (100 units/ml) and streptomycin (100 µg/ml) at 37°C with 5% CO2. COS-7 cells were grown at 37°C under 5% CO2 in Dulbecco's modified Eagle's medium containing 10% fetal calf serum, 1% penicillin and 1% glutamine (Sigma-Aldrich, St Quentin-Fallavier, France). At 80% confluence, the cells were transfected using a calcium phosphate precipitation method for transient expression of the genetic construct. After 48 h incubation at 37°C, cells were harvested and the membranes were prepared as follow. Cells were washed with ice-cold phosphate buffer and centrifuged at 1700 g for 10 min (4°C). The pellet was suspended in ice-cold buffer (1 mM EDTA, 25 mM sodium phosphate, and 5 mM MgCl2, pH 7.4) and homogenized using an Potter-Elvehjem homogenizer (Fisher Scientific Labosi, Elancourt, France). The homogenate was centrifuged at 1700 g for 15 min (4°C). The sediment was resuspended in buffer, homogenized, and centrifuged at 1700 g for 15 min (4°C). The combined supernatants were centrifuged at 35,000 g for 30 min (4°C), and the pellet was suspended in the same buffer (0.1 ml/dish). […] Cells were grown in a 50∶50 Dulbecco's Modified Eagle's Medium (DMEM)/Ham's F12 medium supplemented with 10% (v/v) foetal bovine serum (FBS), glutamine (2 mM), penicillin (100 units/ml) and streptomycin (100 µg/ml) at 37°C with 5% CO2. Media was changed every 2–3 days and cells were passaged when confluent with 0.05% trypsin and 0.02% EDTA.
(§3) Binding experiments were performed in a 100 µL reaction mix at room temperature in buffer composed of 50 mM Tris-HCl, pH 7.4, 10 mM MgCl2, 1 g/L BSA. Reactions were stopped by filtration through 96 GF/C filter plates pre-incubated with 0.5% polyethylenimine.
(§4) Binding data were analyzed by nonlinear regression using the KaleidaGraph 4.0 software (Synergy software, Reading, PA). pKD values and Bmax (number of binding sites) were determined by applying a nonlinear regression to data obtained with saturation binding assays. The nonlinear regression used was BS = (Bmax*A)/KD+A, where BS is the specific binding, Bmax the number of binding sites, A the concentration of radioligand, and KD the dissociation constant of the radioligand. Data resulting from competition binding assays were analyzed using the Hill equation for IC50 and curve slope estimations. […] The linear curves were analyzed with IC50 = Ki+(L/KD)*Ki. Dissociation kinetics were analyzed using a simple equation of exponential decay BS * exp (-Koff*t), where BS is the specific binding at time zero and Koff is the dissociation rate constant. Results are expressed as mean ± s.e. mean from n independent experiments. One-way Anova test was used to compare values. A p<0.05 was accepted for statistical significance.

Test [2] has as its target T2, α1A-AR (Homo sapiens, UniProt P35348).
T2 sequence (P35348 1-466): T1 sequence (P35348 1-466 F187A) with A187F
Nature of the test: Competition binding with ^3H-prazosin. More on the design: expressed in transfected cells. As to conditions: inhibition of ^3H-prazosin 2 nM. The protocol: CHO cells stably expressing α1-ARs were kindly provided by Dr. Hervé Paris (INSERM U858, Toulouse, France) and were grown in a 50∶50 Dulbecco's Modified Eagle's Medium (DMEM)/Ham's F12 medium supplemented with 10% (v/v) foetal bovine serum (FBS), glutamine (2 mM), penicillin (100 units/ml) and streptomycin (100 µg/ml) at 37°C with 5% CO2. COS-7 cells were grown at 37°C under 5% CO2 in Dulbecco's modified Eagle's medium containing 10% fetal calf serum, 1% penicillin and 1% glutamine (Sigma-Aldrich, St Quentin-Fallavier, France). At 80% confluence, the cells were transfected using a calcium phosphate precipitation method for transient expression of the genetic construct. […]
as §4, with “The nonlinear regression used was BS = (Bmax*A)/KD+A, where BS is the specific binding, Bmax the number of binding sites, A the concentration of radioligand, and KD the dissociation constant of the radioligand.” left out, “One-way Anova test was used to compare values. A p<0.05 was accepted for statistical significance.” left out

The target in the next test is T3, human α1A-AR WT (Homo sapiens, UniProt P35348).
T3 construct: expressed in transfected cells; host or cells: COS-7, transient (calcium phosphate)
T3 sequence (P35348 1-466): T1 sequence (P35348 1-466 F187A) with A187F
Description: Competition binding with ^125I-HEAT, wild type receptor. The protocol: as §2, §3
as §4, with “The nonlinear regression used was BS = (Bmax*A)/KD+A, where BS is the specific binding, Bmax the number of binding sites, A the concentration of radioligand, and KD the dissociation constant of the radioligand.” left out, “One-way Anova test was used to compare values. A p<0.05 was accepted for statistical significance.” left out

Test [3] concerns the target T4, human α1A-AR F86A variant (Homo sapiens, UniProt P35348, F86A).
T4 construct: expressed in transfected cells; host or cells: COS-7, transient (calcium phosphate)
T4 sequence (P35348 1-466 F86A): T1 sequence (P35348 1-466 F187A) with F86A, A187F
Description: Competition binding with ^125I-HEAT.
Text: as §1
as §2, with “Media was changed every 2–3 days and cells were passaged when confluent with 0.05% trypsin and 0.02% EDTA.” left out
as §4, with “The nonlinear regression used was BS = (Bmax*A)/KD+A, where BS is the specific binding, Bmax the number of binding sites, A the concentration of radioligand, and KD the dissociation constant of the radioligand.” left out, “One-way Anova test was used to compare values. A p<0.05 was accepted for statistical significance.” left out

The target of test [4] is T5, human α1A-AR D106A variant (Homo sapiens, UniProt P35348, D106A).
T5 construct: expressed in transfected cells; host or cells: COS-7, transient (calcium phosphate)
T5 sequence (P35348 1-466 D106A): T1 sequence (P35348 1-466 F187A) with D106A, A187F
Nature of the test: Competition binding with ^125I-HEAT.
Text: as §1
as §2, with “Media was changed every 2–3 days and cells were passaged when confluent with 0.05% trypsin and 0.02% EDTA.” left out
as §4, with “The nonlinear regression used was BS = (Bmax*A)/KD+A, where BS is the specific binding, Bmax the number of binding sites, A the concentration of radioligand, and KD the dissociation constant of the radioligand.” left out, “One-way Anova test was used to compare values. A p<0.05 was accepted for statistical significance.” left out

Test [5] deals with T2, α1A-AR. Description: Intracellular Ca^2+ release in CHO-K1 cells expressing the α1A-AR. The class given is cell-based. On the set-up: expressed in transfected cells. The following applies: for Emax: CHO-K1, read-out: Emax, Ca^2+ release. The method, then: as §2
All experiments were performed in duplicate.

In another test the target is α1D-AR. More on the design: method as in PMID 20015090. The following applies: α1D-AR expressed in yeast; read-out: affinity; cited from earlier work.
Test [6] relates to α1A-AR. More on the design: method as in PMID 20015090. As to conditions: cited from earlier work.
In the next test the target is α1B-AR. On the set-up: method as in PMID 20015090. As to conditions: α1B-AR expressed in yeast; read-out: affinity; cited from earlier work.
Setting [7] is: linear fit of ρ-Da1a IC50 against ^125I-HEAT concentration.

Where a chain is given by its changes, count along the chain named.

In general, Hill slope refers to a measure of the steepness of the concentration-response curve. Broadly, the Kd is a measure of binding affinity in units of concentration. By pKd is commonly meant −log10 of the Kd, conventionally taken in molar units. On to `O=C1c2ccccc2CCC1CNCCc1ccc(O)cc1` (stereo not shown) [HEAT], for which the “increase in HEAT affinity” value in test [1] worked out at 4.5 fold. Also, on α1A-AR [2], the Hill slope is recorded as 0.85. The pKi on α1A-AR [2] (n = 3) stood at 9.66±0.08 nM; on human α1A-AR WT (WT, competition with ^125I-HEAT 200 pM), 9.57±0.08; in test [3] (competition with ^125I-HEAT […]), 8.21±0.09; in [4] (competition with ^125I-HEAT 200 pM), 9.74±0.12. Also, the “Ratio (Ki relative to WT)” value at human α1A-AR WT (WT) was 1. For the same compound, the Kd on human α1A-AR WT (setting [7]) worked out at 0.0435 nM. For the same compound, the pKd on human α1A-AR WT (setting [7]) was determined as 10.36. Also, the results for the “Ratio (reduction of affinity relative to WT)” value in test [3] and in test [4] were 23 ^* and 0.67, respectively.
The term Emax denotes the maximal effect, on the per cent scale that the assay sets. In the case of `CNC[C@H](O)c1cccc(O)c1` [phenylephrine], the Emax on α1A-AR [5] amounted to 64.8 ± 2.4%.
Regarding ρ-Da1a, the Ki at α1D-AR was 420 nM; at α1A-AR [6] (α1A-AR expressed in yeast, read-out: affinity), 0.35 nM; at α1B-AR, 317 nM. Also, the “displacement of ^3H-prazosin binding” value in the test on α1A-AR [6] (yeast membranes expressing the α1A-AR) is 85%.
As to `CS(=O)(=O)Nc1c(O)ccc2c1CCCC2C1=NCCN1` (stereo not shown) [A61603], at α1A-AR [5] (CHO-K1 cells expressing the α1A-AR, agonist alone, A23187 1 µM), the “Emax, Ca^2+ release” value is 75.5±1.3 percentage of peak A23187 response.
`NC[C@H](O)c1ccc(O)c(O)c1` [noradrenaline]: the Emax at α1A-AR [5] was 77.8 ± 1.5%.
Still for that read-out and setting: with `Cc1cc(C(C)(C)C)c(O)c(C)c1CC1=NCCN1` [oxymetazoline] the figure was 60.8 ± 1.3%.

The values above are taken from paper PMC3723878 (PLoS ONE, 2013).
